As a reminder, the half-life is how long it takes for the measured level to halve. As a reminder, the IC50 is the concentration needed to halve the response being measured.

The subject of data set [1] is lung cancer. The data set is described as follows: Example 7: lung cancer patients with disease progression on IRESSA alone. Type of data set: in vivo, human. The note with it: added to IRESSA, oral 100 mg/square meter, optionally calcitriol 0.1-1 mcg per day.
The subject of data set [2] is F9 embryonal mouse teratocarcinoma cells. The conditions noted are these: in F9 cells; cited from earlier work.
Another data set deals with F9 cells. The note with it: similar to all-trans RA; cited from earlier work.
The subject of data set [3] is advanced head and neck cancer. The data set is described as follows: Example 5: patients with advanced head and neck cancer. The conditions noted are these: oral 100 mg/square meter with oral IRESSA or intravenous C-225. Type of data set: in vivo, human. An excerpt:
Current systemic chemotherapy regimens are unable to prolong survival of patients with advanced head and neck cancer.

Data set [4] relates to non small cell lung cancer. The data set is described as follows: Example 2: patient with non small cell lung cancer. Type of data set: in vivo, human. The conditions noted are these: 75 mg per day with IRESSA 250 mg per day for two months. As for the experimental part:
A patient suffering from non small cell lung cancer was treated with IRESSA® (250 mg per day) for two months. The disease progressed during the treatment and thae patient was continued on IRESSA® (250 mg per day) with daily dosage of 4-oxo-retinol (75 mg per day) for two months. The disease became stable and the patient continued taking IRESSA® (250 mg per day) for 4 more months without 4-oxo-retinol with a stale disease.

Another data set relates to Xenopus laevis. The conditions noted are these: Xenopus laevis system; cited from earlier work.
Another data set concerns the target T1, human RARα (Homo sapiens, UniProt P10276).
T1 sequence (P10276 1-462): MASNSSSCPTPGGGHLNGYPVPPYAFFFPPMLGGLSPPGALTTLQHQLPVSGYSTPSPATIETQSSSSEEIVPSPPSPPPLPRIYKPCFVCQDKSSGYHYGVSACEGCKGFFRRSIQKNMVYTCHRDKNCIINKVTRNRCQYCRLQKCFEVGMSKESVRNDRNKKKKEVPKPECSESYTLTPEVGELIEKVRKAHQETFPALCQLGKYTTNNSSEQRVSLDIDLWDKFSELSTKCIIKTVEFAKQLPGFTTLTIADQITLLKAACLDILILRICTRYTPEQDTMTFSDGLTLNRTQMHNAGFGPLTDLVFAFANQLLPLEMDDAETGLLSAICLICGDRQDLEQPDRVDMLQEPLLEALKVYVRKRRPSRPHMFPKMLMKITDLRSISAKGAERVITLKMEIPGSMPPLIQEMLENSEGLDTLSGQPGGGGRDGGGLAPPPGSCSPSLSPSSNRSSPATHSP
The note with it: cited from earlier work.

Data set [5] relates to acute lymphoblastic leukemia. The data set is described as follows: Example 1: patient with relapsed acute lymphoblastic leukemia. The format is in vivo, human. As for the experimental part: A person was diagnosed with acute lymphoblastic leukemia. […] 15 received a chemotherapy induction regimen of eight cycles of Hyper-CVAD which consists of the following: Cyclophosphamide 300 mg/mn^2 intravenously (IV) over 3 hours every 12 hours for six doses on days 1 through 3, with mesna at the same total dose as cyclophosphamide but given bycontinuous infusion starting with cyclophosphamide and ending 6 hours after the last dose; vincristine 2 mg IV days 4 and 11; doxorubicin 50 mg/^2 IV day 4; and dexamethasone 40 mg daily on days 1 through 4 and 11 through 14.
In addition, high dose methotrexate-cytarabine (ara-c) was used as follows: MTX (methotrexate) 200 mg/m^2 IV over 2 hours followed by 800 mg/m^2 IV over 24 hours on day 1; citrovorum factor rescue starting 24 hours after completion of MTX infusion at 15 mg every 6 hours x 8, and increased to 50 mg every 6 hours if MTX levels were more 25 than 20 ,upmol/L at the end of the infuision, more than 1 μμmol/L 24 hours later, or more than 0.1 μμmol/L48 hours after the end of MTX infusion, until levels were lower than 0.1μμM; ara-C (cytarabine) […] over 2 hours every 12 hours ×4 on days 2 and 3; and methylprednisolone 50 mg IV twice daily on days 1 through 3.
About a year later, they relapsed with the presence of cancer cells in blood and bone marrow. Thereafter, they underwent a salvage chemotherapy regimen of FLAG (fludarabine, ara-c and G-CSF) with the following doses: fludarabine 30 mg/m^2lday for 5 days; ara-C (cytarabine) 2 g/m^2/day for 5 days (FLAG); and G-CSF (neupogen or granulocyte colony stimulating factor) 400 micrograms/m^2/day. […] They were then given the same salvage regimen plus a daily oral dose of 4-oxo-retinol at 150 mg per day for 28 days. […] This remission lasted for one month before relapse.
The same salvage regimen was repeated with oral administration of4-oxo-retinol (75 mg per day for 18 days) in addition to a daily dose of calcitriol (50 mcg per day concomitant with the administration of 4-oxo-retinol).

Data set [6] concerns retinoid receptor subtype. The note with it: competition with all-trans RA; cited from earlier work.
The test system of data set [7] is lung cancer. The data set is described as follows: Example 6: patients with lung cancer. The format is in vivo, human. The note with it: oral 100 mg/square meter with oral IRESSA.
Another data set addresses T2, monomeric mouse RAR b (Mus musculus, UniProt P22605).
T2 sequence (P22605 1-482): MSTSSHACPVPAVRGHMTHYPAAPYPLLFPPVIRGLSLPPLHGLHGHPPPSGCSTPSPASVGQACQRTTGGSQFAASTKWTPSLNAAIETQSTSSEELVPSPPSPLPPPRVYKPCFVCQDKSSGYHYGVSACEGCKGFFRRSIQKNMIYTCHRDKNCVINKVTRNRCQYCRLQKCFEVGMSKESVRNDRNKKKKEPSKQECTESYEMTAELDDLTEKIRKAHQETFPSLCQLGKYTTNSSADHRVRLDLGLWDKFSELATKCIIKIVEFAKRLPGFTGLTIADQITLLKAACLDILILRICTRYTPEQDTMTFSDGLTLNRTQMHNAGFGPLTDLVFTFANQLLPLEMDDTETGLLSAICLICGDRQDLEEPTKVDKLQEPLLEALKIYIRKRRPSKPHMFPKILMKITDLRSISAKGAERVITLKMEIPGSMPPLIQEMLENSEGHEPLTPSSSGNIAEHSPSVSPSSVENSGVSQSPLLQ
The conditions noted are these: read-out: IC50, ability to displace all-trans RA; cited from earlier work.

Setting [8] is: FLAG salvage regimen plus oral 150 mg per day for 28 days.

Consider `CC(C=CC1=C(C)C(=O)CCC1(C)C)=CC=CC(C)=CCO` [4-oxo-retinol], for which, in the data set on lung cancer [1], the tumor burden result is “reduced tumor burden”. In addition, the half-life in data set [2] is over 15 h. The “differentiation of F9 cells” value in the data set with F9 cells is listed as “induces differentiation”. For the same compound, the “survival rate versus IRESSA or C-225 alone” value in data set [3] is reported as “better survival rate”. For the same compound, the disease course result in [4] is given as “stable”. The “ED50, teratogenicity” value with Xenopus laevis was 300 to 400 nM. For the same compound, the RARα-mediated transactivation result on human RARα is on record as “potently induced transactivation”. Moreover, in data set [5] (FLAG salvage regimen plus oral 75 mg per day for 18 days and calcitriol 50 mcg per day), the response entry is reported as “complete remission”. Also, in data set [5] (setting [8]), the “duration of remission before relapse” value is listed as “one”; the lymph nodes entry is recorded as “shrinkage of the lumph nodes to normal size”; the “response (blood and bone marrow)” value is recorded as “complete remission”. Besides, the “displacement of all-trans RA” value in data set [6] is given as “Neither compound efficiently displaced all-trans RA”. In addition, the “tumor burden versus IRESSA alone” value in the data set with lung cancer [7] is “reduced tumor burden”. For the same compound, at monomeric mouse RAR b, the concentration for half-maximal inhibition (IC50) was 420 nM.

Source of the values: patent publication US20060281813A1, “Methods of treating hyperproliferative cell disorders” (priority 2003, published 2006).
